# From ChEMBL document CHEMBL3045223, “Synthesis, nematicidal and antimicrobial properties of Bis-[4-methoxy-3-[3-(4-fluorophenyl)-6-(4-methylphenyl)-2(aryl)-tetrahydro-2H-pyrazolo[3,4-d]thiazol-5-yl]phenyl]methanes” (2009)
# Activity calls are given as the source filed them. The calls are words filed in the database; no cut-off is given here.
# Key:
# Assay type in all cases: functional
# Pseudomonas aeruginosa [1] = assay: Antibacterial activity against Pseudomonas aeruginosa MTCC 741 assessed as inhibition zones at 300 ug/disk at 37 degC for 24 hr; details: MTCC 741, 24 h, read-out: IZ
# [2] = test system: Chromobacterium violaceum; assay: Antibacterial activity against Chromobacterium violaceum MTCC 2656 assessed as inhibition zones at 300 ug/disk at 37 degC for 24 hr; details: MTCC 2656, 24 h, read-out: IZ
# Klebsiella aerogenes [3] = assay: Antibacterial activity against Enterobacter aerogenes MTCC 39 assessed as inhibition zones at 300 ug/disk at 37 degC for 24 hr; details: MTCC 39, 24 h, read-out: IZ
# [4] = test system: Lysinibacillus sphaericus; assay: Antibacterial activity against Lysinibacillus sphaericus MTCC 11 assessed as growth arrest at 37 degC for 24 hr; details: MTCC 11, 24 h
# [5] = test system: Ditylenchus myceliophagus; assay: Nematicidal activity against Ditylenchus myceliophagus assessed as immobility; details: read-out: LD50 (the source's name)
# Pseudomonas aeruginosa [6] = assay: Antibacterial activity against Pseudomonas aeruginosa MTCC 741 assessed as growth arrest at 37 degC for 24 hr; details: MTCC 741, 24 h
# Aspergillus fumigatus [7] = assay: Antifungal activity against Aspergillus fumigatus HIC 6094 assessed as growth inhibition at 300 ug/disc at 37 degC for 48 hr
# Candida albicans [8] = assay: Antifungal activity against Candida albicans ATCC 10231 assessed as growth inhibition at 37 degC for 48 hr; details: ATCC 10231, 48 h
# Aspergillus fumigatus [9] = assay: Antifungal activity against Aspergillus fumigatus HIC 6094 assessed as growth inhibition at 37 degC for 48 hr
# Staphylococcus aureus [10] = assay: Antibacterial activity against Staphylococcus aureus MTCC 96 assessed as inhibition zones at 300 ug/disc at 37 degC for 24 hr; details: MTCC 96, 24 h, read-out: IZ
# Trichophyton rubrum [11] = assay: Antifungal activity against Trichophyton rubrum IFO 9185 assessed as growth inhibition at 37 degC for 48 hr
# Klebsiella aerogenes [12] = assay: Antibacterial activity against Enterobacter aerogenes MTCC 39 assessed as growth arrest at 37 degC for 24 hr; details: MTCC 39, 24 h
# Bacillus subtilis [13] = assay: Antibacterial activity against Bacillus subtilis MTCC 441 assessed as inhibition zones at 300 ug/disk at 37 degC for 24 hr; details: MTCC 441, 24 h, read-out: IZ
# Caenorhabditis elegans = assay: Nematicidal activity against Caenorhabditis elegans assessed as immobility; details: read-out: LD50 (the source's name)
# [14] = test system: Trichophyton mentagrophytes; assay: Antifungal activity against Trichophyton mentagrophytes IFO 40996 assessed as growth inhibition at 300 ug/disc at 37 degC for 48 hr
# Bacillus subtilis [15] = assay: Antibacterial activity against Bacillus subtilis MTCC 441 assessed as growth arrest at 37 degC for 24 hr; details: MTCC 441, 24 h
# Staphylococcus aureus [16] = assay: Antibacterial activity against Staphylococcus aureus MTCC 96 assessed as growth arrest at 37 degC for 24 hr; details: MTCC 96, 24 h
# [17] = test system: Chromobacterium violaceum; assay: Antibacterial activity against Chromobacterium violaceum MTCC 2656 assessed as growth arrest at 37 degC for 24 hr; details: MTCC 2656, 24 h
# [18] = test system: Lysinibacillus sphaericus; assay: Antibacterial activity against Lysinibacillus sphaericus MTCC 11 assessed as inhibition zones at 300 ug/disk at 37 degC for 24 hr; details: MTCC 11, 24 h, read-out: IZ
# Trichophyton rubrum [19] = assay: Antifungal activity against Trichophyton rubrum IFO 9185 assessed as growth inhibition at 300 ug/disk at 37 degC for 48 hr; details: for zone of inhibition at 300 µg/disc: IFO 9185, 48 h, read-out: IZ
# Candida albicans [20] = assay: Antifungal activity against Candida albicans ATCC 10231 assessed as growth inhibition at 300 ug/disk at 37 degC for 48 hr; details: for zone of inhibition at 300 µg/disc: ATCC 10231, 48 h, read-out: IZ
# [21] = test system: Trichophyton mentagrophytes; assay: Antifungal activity against Trichophyton mentagrophytes IFO 40996 assessed as growth inhibition at 37 degC for 48 hr; details: IFO 40996, 48 h
Structure (SMILES),zone of inhibition at 300 µg/disc (Pseudomonas aeruginosa [1]) [mm],zone of inhibition at 300 µg/disc [2] [mm],zone of inhibition at 300 µg/disc (Klebsiella aerogenes [3]) [mm],MBC [4] [µg/mL],MIC [4] [µg/mL],LC50 [5] [µg/mL],MBC (Pseudomonas aeruginosa [6]) [µg/mL],MIC (Pseudomonas aeruginosa [6]) [µg/mL],inhibition zone (IZ) (Aspergillus fumigatus [7]),MBC (Candida albicans [8]) [µg/mL],MIC (Candida albicans [8]) [µg/mL],zone of inhibition at 300 µg/disc (Staphylococcus aureus [10]) [mm],MBC (Klebsiella aerogenes [12]) [µg/mL],MIC (Klebsiella aerogenes [12]) [µg/mL],zone of inhibition at 300 µg/disc (Bacillus subtilis [13]) [mm],LC50 (Caenorhabditis elegans) [µg/mL],MBC (Bacillus subtilis [15]) [µg/mL],MIC (Bacillus subtilis [15]) [µg/mL],MBC (Staphylococcus aureus [16]) [µg/mL],MIC (Staphylococcus aureus [16]) [µg/mL],further results
COc1ccc(N2N=C3C(SC(c4cc(Cc5ccc(OC)c(C6SC7C(=NN(c8ccc(OC)cc8)C7c7ccc(F)cc7)N6c6ccc(Cl)cc6)c5)ccc4OC)N3c3ccc(Cl)cc3)C2c2ccc(F)cc2)cc1 (stereo unspecified),20,23,21,50,12.5,900,50,12.5,inactive,50,25,28,25,12.5,17,820,12.5,12.5,25,12.5,"MBC (Aspergillus fumigatus [9]): inactive; MIC (Aspergillus fumigatus [9]): inactive; MBC (Trichophyton rubrum [11]; IFO 9185, 48 h): 50 µg/mL; MIC (Trichophyton rubrum [11]; IFO 9185, 48 h): 25 µg/mL; inhibition zone (IZ) [14]: inactive; MBC [17]: 50 µg/mL; MIC [17]: 6.25 µg/mL; zone of inhibition at 300 µg/disc [18]: 16 mm; inhibition zone (IZ) (Trichophyton rubrum [19]): inactive; zone of inhibition at 300 µg/disc (Candida albicans [20]): 14 mm; MBC [21]: 50 µg/mL; MIC [21]: 25 µg/mL"
COc1ccc(Cc2ccc(OC)c(C3SC4C(=NN(c5ccc(Cl)cc5)C4c4ccc(F)cc4)N3c3ccc(Cl)cc3)c2)cc1C1SC2C(=NN(c3ccc(Cl)cc3)C2c2ccc(F)cc2)N1c1ccc(Cl)cc1 (stereo unspecified),18,18,19,25,6.25,290,50,50,inactive,12.5,12.5,22,12.5,12.5,11,380,25,12.5,50,12.5,"MBC (Aspergillus fumigatus [9]; HIC 6094, 48 h): 25 µg/mL; MIC (Aspergillus fumigatus [9]; HIC 6094, 48 h): 25 µg/mL; MBC (Trichophyton rubrum [11]; IFO 9185, 48 h): 12.5 µg/mL; MIC (Trichophyton rubrum [11]; IFO 9185, 48 h): 12.5 µg/mL; inhibition zone (IZ) [14]: inactive; MBC [17]: 50 µg/mL; MIC [17]: 25 µg/mL; zone of inhibition at 300 µg/disc [18]: 19 mm; zone of inhibition at 300 µg/disc (Trichophyton rubrum [19]): 15 mm; inhibition zone (IZ) (Candida albicans [20]): inactive; MBC [21]: 50 µg/mL; MIC [21]: 25 µg/mL"
COc1ccc(Cc2ccc(OC)c(C3SC4C(=NN(C(C)C)C4c4ccc(F)cc4)N3c3ccc(Cl)cc3)c2)cc1C1SC2C(=NN(C(C)C)C2c2ccc(F)cc2)N1c1ccc(Cl)cc1 (stereo unspecified),13,16,20,50,25,520,25,25,inactive,25,12.5,13,50,25,12,670,25,12.5,25,12.5,"MBC (Aspergillus fumigatus [9]; HIC 6094, 48 h): 25 µg/mL; MIC (Aspergillus fumigatus [9]; HIC 6094, 48 h): 25 µg/mL; MBC (Trichophyton rubrum [11]): inactive; MIC (Trichophyton rubrum [11]): inactive; zone of inhibition at 300 µg/disc ([14]; IFO 40996, 48 h, read-out: IZ): 12 mm; MBC [17]: 25 µg/mL; MIC [17]: 12.5 µg/mL; zone of inhibition at 300 µg/disc [18]: 11 mm; zone of inhibition at 300 µg/disc (Trichophyton rubrum [19]): 11 mm; zone of inhibition at 300 µg/disc (Candida albicans [20]): 10 mm; MBC [21]: 50 µg/mL; MIC [21]: 25 µg/mL"
